{
  "source": "paper PMC6811774",
  "about": "“Potent, selective, and subunit‐dependent activation of TRPC5 channels by a xanthine derivative” (British Journal of Pharmacology, 2019)",
  "target": "T1, TRPC3 (Homo sapiens, UniProt Q13507)",
  "T1 construct": "expressed in transfected cells; host or cells: WT HEK 293 (transient, jetPRIME)",
  "T1 sequence (Q13507 1-921)": "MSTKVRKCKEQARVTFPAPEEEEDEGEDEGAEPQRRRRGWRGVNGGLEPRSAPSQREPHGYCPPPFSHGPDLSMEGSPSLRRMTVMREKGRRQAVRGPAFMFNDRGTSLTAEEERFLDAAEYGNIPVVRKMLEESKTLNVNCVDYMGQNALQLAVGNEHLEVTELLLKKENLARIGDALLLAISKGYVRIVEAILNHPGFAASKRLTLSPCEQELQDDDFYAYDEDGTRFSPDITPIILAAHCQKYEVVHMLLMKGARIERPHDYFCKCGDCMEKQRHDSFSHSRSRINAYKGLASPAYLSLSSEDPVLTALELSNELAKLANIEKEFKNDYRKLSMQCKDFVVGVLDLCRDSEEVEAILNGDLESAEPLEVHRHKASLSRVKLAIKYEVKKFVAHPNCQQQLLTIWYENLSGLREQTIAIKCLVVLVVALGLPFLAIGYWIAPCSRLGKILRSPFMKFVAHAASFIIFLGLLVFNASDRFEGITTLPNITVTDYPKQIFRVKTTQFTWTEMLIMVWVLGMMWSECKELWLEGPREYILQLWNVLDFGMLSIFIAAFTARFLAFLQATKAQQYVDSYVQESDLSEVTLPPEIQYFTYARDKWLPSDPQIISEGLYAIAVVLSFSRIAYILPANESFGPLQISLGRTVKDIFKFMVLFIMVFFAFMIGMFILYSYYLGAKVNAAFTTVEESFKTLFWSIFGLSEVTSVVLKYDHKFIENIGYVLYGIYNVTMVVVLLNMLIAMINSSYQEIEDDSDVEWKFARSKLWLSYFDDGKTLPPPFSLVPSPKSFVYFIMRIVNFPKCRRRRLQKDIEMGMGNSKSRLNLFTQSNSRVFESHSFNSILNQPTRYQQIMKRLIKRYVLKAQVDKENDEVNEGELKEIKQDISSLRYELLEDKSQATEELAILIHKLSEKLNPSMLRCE",
  "test": "[Ca2+]i selectivity assay, WT HEK 293 cells transiently transfected with hTRPC3, OAG activation",
  "format": "cell-based",
  "details": "300 nM AM237; 100 μM OAG",
  "data": [
    {"molecule": "Cn1c(=O)n(CCCO)c(=O)c2c1nc(Oc1ccc(Cl)c(OC(F)(F)F)c1)n2Cc1ccc(Cl)cc1", "note": "[AM237]", "values": [
      {"measurement": "Activation or inhibition of TRPC3", "result": "no activation or inhibition"}
    ]}
  ]
}
